Source: PubChem BioAssay AID2305 (GlaxoSmithKline (GSK), 2010)
“And” between values parts separate entries of the source, which are not always exact repeats. Equal values may be shown once.

The compounds below were run on P. falciparum 3D7 growth, pLDH absorbance (assay: P. falciparum 3D7 growth inhibition, dose response, strain 3D7 (AID 2305)).
`CC(CCCCCC(=O)Nc1ccc(CC(C)NCCc2cccc(Cl)c2)cc1)NCCc1cccc(Cl)c1` (stereo unspecified) gave an IC50 of 950 nM. `O=C(Nc1ccc(Cl)cc1)NC1CCN(CCCCCNC(=O)[C@@H]2C[C@H]2c2ccc(Cl)c(Cl)c2)CC1` gave an IC50 of 580 nM. In the case of `FC(F)(F)c1ccc(Nc2nnnc3ccccc23)cc1`, the IC50 is reported as 690 nM. In the case of `Cc1cc(-c2cccc(CNCc3ccc(F)cc3)c2)ccc1S(=O)(=O)NCCN1CCCC1`, the IC50 is reported as 730 nM. With `COc1ccc2ccccc2c1CCCCN1CCN(CC(c2ccc(F)cc2)N2CCC2)CC1` (stereo unspecified) the IC50 was 760 nM. `COc1ccc(NC(=O)[C@H](Cc2ccccc2)Nc2cc(C)nc(NCCN3CCCC3)n2)cc1` gave an IC50 of 1390 nM. `Cc1cc(NC(=O)c2ccco2)ccc1OC1CCN(Cc2ccccc2)CC1` was tested, and the IC50 was 530 nM. `NC(=O)c1ccc(NCC(=O)Nc2cccc(-c3cccc(-c4nc5ccc(C(F)(F)F)cc5[nH]4)c3)c2)cc1` gave an IC50 of 270 nM. Work on `COc1ccc(CC2(c3ccc(F)cc3)N=C(N)N(CCCc3ccccc3)C2=O)cc1` (stereo unspecified) yielded an IC50 of 610 nM. With `CN1CCC(Oc2ccc(Nc3nccc(NCC(O)c4ccccc4)n3)cc2Cl)CC1` (stereo unspecified) the IC50 was 790 nM. `CCCCCOc1c(CCC)cc(Cc2cnc(N)nc2N)cc1CCC` gave an IC50 of 900 nM. `Cc1ccc(-n2nc(C)c3c2NC(=O)CSC3c2ccsc2)cc1` (stereo unspecified) gave an IC50 of 1010 nM. Work on `CCN(CC)CCNc1ccnc2[nH]c3ccc(Cl)cc3c12` yielded an IC50 of 240 nM. For `Clc1cc(Nc2ncnc3cc(C#C[C@H]4CCCN4)sc23)cc2[nH]c(Cc3ccccc3)nc12`, the IC50 was 850 nM. In the case of `Cc1ccc(C(=O)Nc2ccc(C)c(OC3CCN(Cc4ccco4)C3)c2)cc1` (stereo unspecified), the IC50 is reported as 970 nM. Work on `CCN(CC)CCNc1ccc(Nc2ccnc3cc4ccccc4cc23)cc1` yielded an IC50 of 200 nM. With `C=CCC(C)n1ncc2c3c(N)nc(N)nc3ccc21` (stereo unspecified) the IC50 was 50 nM. `COc1cccc(Nc2nc(NCCO)c3ccccc3n2)c1` was tested, and the IC50 was 150 nM. `O=C(O)C[C@H](NC(=O)[C@@H]1CCCN1C(=O)c1cccc(-c2ccc(Cl)c(Cl)c2)c1)C(=O)O` gave an IC50 of 860 nM. Compound `Cc1cc2nc(-c3cc(-c4cccc(NS(C)(=O)=O)c4)cnc3N)[nH]c2cc1C` has an IC50 of 670 nM. For `O=C(/C=C/c1ccccc1O)NCCCCCN1CCC(c2c[nH]c3ccccc23)CC1`, the IC50 was 830 nM. For `CCN(CCCN1CCCCC1)c1cc(C)nc(Nc2ccc(C)cc2C)n1`, the IC50 was 350 nM. For `CN(c1ccc(NC(=O)CCOc2ccccc2)cc1)C1CCN(Cc2cccc(O)c2)CC1`, the IC50 was 1320 nM. `COc1cc2c(cc1C(F)(F)F)N(C(=O)Nc1cc(F)cc(-c3cccnn3)c1)CC2` gave an IC50 of 270 nM. In the case of `CC(C)NCc1cc(Nc2ccnc3cc(Cl)ccc23)ccc1O`, the IC50 is reported as 20 nM. Work on `CN(C)c1ccc(-c2cscc2C(=O)NC2CCCN(Cc3cccnc3)C2)cc1` (stereo unspecified) yielded an IC50 of 860 nM. `CCCCCCCN1CC[C@@H](CCCc2ccnc3ccc(OCCCCN=C(N)NO)cc23)[C@@H](CC)C1` gave an IC50 of 950 nM. `CC[C@H](C)CNC(=O)c1cncc(-c2ccc(CN3CCC(N4CCCC4)CC3)cc2)c1` showed an IC50 of 970 nM. In the case of `CC(C)(C)C(C)(C)Cc1ccc(O)c(CN2CCN(c3ccccc3)CC2)c1`, the IC50 is reported as 600 nM. `NS(=O)(=O)c1ccc(CNc2ccc3ncc(-c4ccc(Cl)cc4)n3n2)cc1` was tested, and the IC50 was 280 nM. With `Cc1ccc(Nc2nc3cc(N(C)c4ccnc(Nc5cccc(CS(C)(=O)=O)c5)n4)ccc3o2)cc1` the IC50 was 970 nM. Work on `COc1ccc2c(c1)CC(CNC[C@H](O)c1cccc(Cl)c1)CC2` (stereo partly specified) yielded an IC50 of 990 nM. `COc1ccc2nccc(N3CCCN(CCNS(=O)(=O)c4ccc5c(c4)NC(=O)CS5)CC3)c2n1` was tested, and the IC50 was 820 nM. For `COc1ccccc1Cc1nc2ccccc2nc1SCC(=O)Nc1cccc(C(F)(F)F)c1`, the IC50 was 500 nM. With `CC(=O)N[C@H](C(=O)Nc1ccc(-c2cccc(-c3nc4c(C)cccc4[nH]3)c2)cc1)C(C)C` the IC50 was 1090 nM. `COc1ccc(-c2nc(NC(=O)CS(=O)(=O)c3ccccc3)sc2C)cc1` showed an IC50 of 600 nM. `CCN(CC)CCOc1c(Cl)cc(Cl)cc1CNCCCNc1cc(=O)c2ccccc2[nH]1` showed an IC50 of 870 nM. `COc1ccc(-c2cccc(NC(=O)c3cccc(Cl)c3)c2)cc1CN1CCCN(C)CC1` was tested, and the IC50 was 230 nM. For `NC1CCN(CCc2ccc(NS(=O)(=O)c3ccc(-c4ccccc4)cc3)cc2)CC1`, the IC50 was 1020 nM. With `O=C(NCCCCN1CCC(c2cccc3ccccc23)CC1)c1ccc(NC(=O)c2ccc(Cl)cc2)cc1` the IC50 was 780 nM. With `CNC(=O)c1cnc(Nc2ccc3[nH]c(=O)[nH]c3c2)nc1Nc1cccc(OC(C)C)c1` the IC50 was 930 nM. Work on `FC(F)(F)c1cccc(CNC2CCN(CC3CCCCC3)CC2)c1` yielded an IC50 of 580 nM. Compound `CCCC1N=C(N)N=C(N)N1c1ccc(CC)cc1` (stereo unspecified) has an IC50 of 70 nM. With `CS(=O)(=O)CCNc1nccc(N2CCc3ncnc(Nc4ccc(OCc5cccc(F)c5)c(Cl)c4)c3C2)n1` the IC50 was 130 nM. With `c1cc(Nc2nccc(-c3cnn4ncccc34)n2)cc(-c2cnco2)c1` the IC50 was 690 nM. For `COc1cc(Cc2cnc(N)nc2N)cc(OCCCOc2ccccc2)c1OC`, the IC50 was 1080 nM. For `CCc1c(CCNCCCCCCNCCc2ccc(OC)c(OC)c2CC)ccc(OC)c1OC`, the IC50 was 730 nM. Compound `CCCCc1cc(NCc2ccncc2)nc(Nc2cccc(OC)c2)n1` has an IC50 of 740 nM. `CCc1c(CCNCCCCCCNCc2ccc3c(c2CC)OCO3)ccc(OC)c1OC` gave an IC50 of 250 nM. With `Cc1nc2ccc3ccc(CN(C)c4ccc(C(=O)N[C@@H](CCC(=O)O)C(=O)O)cc4)cc3c2c(=O)[nH]1` the IC50 was 880 nM. Compound `CCOc1c(OC)ccc2c1CCN(CCN1CCC(NC(=O)c3ccc(-c4cccc(C(F)(F)F)c4C(F)(F)F)cc3)CC1)C2` has an IC50 of 730 nM. Work on `CN1CCN(Cc2cccc(-c3ccc4c(Nc5ccc(Oc6ccccc6)cc5)ccnc4c3)c2)CC1` yielded an IC50 of 230 nM. `CCCCSc1c(CNCCCCCCNCc2ccc3ccccc3c2SCCCC)ccc2ccccc12` gave an IC50 of 1000 nM. `CC1=C(C(=O)Nc2cc3cn[nH]c3cc2F)C(c2ccc(Cl)c(NS(C)(=O)=O)c2)CC(=O)N1` (stereo unspecified) gave an IC50 of 480 nM. Compound `CCc1cc(CNC2CCN(CCc3c(F)cnc4ccc(OC)nc34)CC2)cc2c1OCCO2` has an IC50 of 260 nM. For `CCC1CN2CCc3cc(OC)c(OC)cc3C2CC1CC1NCCc2c1[nH]c1ccc(O)cc21` (stereo unspecified), the IC50 was 100 nM. For `CCS(=O)(=O)N1CCN(c2nc(-c3ccccc3)nc(COC)c2Cc2ccccc2F)CC1`, the IC50 was 1450 nM. With `Cc1ccc(C(=O)Nc2ccc(OC3CCN(CCC(C)C)C3)c(Cl)c2)cc1` (stereo unspecified) the IC50 was 990 nM. In the case of `Cc1sc2cc(Cl)cc(Cl)c2c1S(=O)(=O)Nc1ccc2nccc(N3CCNCC3)c2c1`, the IC50 is reported as 120 nM. Compound `CN(C)S(=O)(=O)n1ncc2c3c(N)nc(N)nc3ccc21` has an IC50 of 180 nM. Compound `O=C(NCC1CCC(CNCCc2ccccc2)CC1)Nc1ccc(Cl)c(Cl)c1` (stereo unspecified) has an IC50 of 740 nM. In the case of `CC(C)OC(=O)c1cccnc1SCC(=O)Nc1ccc(C(F)(F)F)cc1Cl`, the IC50 is reported as 400 nM. In the case of `O=C(NC1CCC(N2CCC(O)(c3ccc(F)cc3)CC2)CC1)c1cc2ccccc2[nH]1` (stereo unspecified), the IC50 is reported as 740 nM. For `O=C(CCC1CCCCC1=O)c1ccccc1` (stereo unspecified), the IC50 was 770 nM. For `CN1CCN(CC2(Nc3nccc(NCCc4cn(C)c5ccccc45)n3)CCCCC2)CC1`, the IC50 was 1810 nM. For `CC1CN(c2ccc(NC(=O)c3cccs3)cc2)CCN1Cc1cccc(F)c1` (stereo unspecified), the IC50 was 490 nM. `Cc1cccc(C)c1CNc1ccnc2cc(Br)ccc12` gave an IC50 of 170 nM. Work on `Cc1cccc2[nH]c(-c3ccc(-c4ccc(CNCc5cnn(-c6ccccc6)n5)cc4)s3)nc12` yielded an IC50 of 720 nM. With `O=C(NCCc1cccc(F)c1)c1cc(Br)cc(N2CCN(c3ccncc3)CC2)c1` the IC50 was 760 nM. Compound `Cc1cc(O)c(CN(C)Cc2ccc(N(C)C)cc2)cc1C(C)C` has an IC50 of 550 nM. Work on `CN(C)CCNCc1cccc(-c2ccc3c(Nc4ccc(F)cc4Cl)ccnc3c2)c1` yielded an IC50 of 810 nM. `O=C(NC1CC1)c1cnc(N2CCC(OCc3ccccc3)CC2)c(Cl)c1` was tested, and the IC50 was 1400 nM. For `CCN(CCCN1CCCCC1)c1cc(C)nc(Nc2cccc(OC(F)(F)F)c2)n1`, the IC50 was 230 nM. In the case of `O=C(/C=C/c1ccc(Cl)c(Cl)c1)Nc1cccc(CN2CCC(c3c[nH]c4ccc(O)cc34)CC2)c1`, the IC50 is reported as 940 nM. In the case of `COc1ccc(CNCCc2cccs2)cc1-c1ccc(S(=O)(=O)NCCN2CCCC2)cc1`, the IC50 is reported as 650 nM. With `COc1ccccc1-c1nc2c(ccc3nc(N)nc(N)c32)[nH]1` the IC50 was 180 nM. Compound `C=Cc1cc(NC(=O)N2CCc3cc(OC)c(C(F)(F)F)cc32)cc(-c2cccnc2)c1` has an IC50 of 700 nM. In the case of `O=C(Nc1cccc(CN2CCN(Cc3cccc(O)c3)CC2)c1)c1ccc(Cl)c(Cl)c1`, the IC50 is reported as 410 nM. `COc1ccccc1N1CCN(C(C(=O)NCc2ccc3c(c2)OCO3)c2ccc(C)cc2)CC1` (stereo unspecified) gave an IC50 of 980 nM. `COc1ccc2nccc(NN=Cc3ccccc3[N+](=O)[O-])c2c1` showed an IC50 of 70 nM. Compound `O=C(NCc1ccc(Cl)cc1)c1ccc(CN2CCCN(Cc3cccc(O)c3)CC2)cc1` has an IC50 of 1170 nM. `CC(NC(=O)NC1CCC(CCN2CCCc3ccccc32)CC1)c1cccc2ccccc12` (stereo unspecified) showed an IC50 of 1020 nM. For `CC(C)CCN1CCCN(Cc2cccc(C(=O)Nc3ccc(C(C)(C)C)cc3)c2)CC1`, the IC50 was 1100 nM. `Cc1cc(N(C)CCCN(C)C)nc(Nc2ccc(Cl)cc2)n1` gave an IC50 of 1020 nM. Compound `CC1CC(C)CN(S(=O)(=O)c2cc(C(=O)Nc3cccc([N+](=O)[O-])c3)ccc2Br)C1` (stereo unspecified) has an IC50 of 900 nM. In the case of `N#Cc1cccc(NC(=O)Nc2ccc(-c3ccc(-c4nc5ccc(C(F)(F)F)cc5[nH]4)cc3)cc2)c1`, the IC50 is reported as 140 nM. Work on `Cc1cc(NCCc2ccccc2)nc(/N=C(\N)Nc2ccccc2Cl)n1` yielded an IC50 of 790 nM. In the case of `Cc1ccc(NC(=O)c2nc(N3CCN(c4ccncc4)CC3)ccc2Cl)cc1F`, the IC50 is reported as 810 nM. In the case of `COc1cc(-c2nc3c4ccccc4c4ccccc4c3[nH]2)cc(OC)c1OC`, the IC50 is reported as 850 nM. Compound `O=C(Cn1c(CCc2cccc(F)c2F)cc(=O)c2ccccc21)N(Cc1ccc(-c2ccc(C(F)(F)F)cc2)cc1)C1CCN(CCO)CC1` has an IC50 of 1320 nM. In the case of `C#CCOc1ccc(CC(C)NCC(O)c2cccc(C(F)(F)F)c2)cc1` (stereo unspecified), the IC50 is reported as 1190 nM and 1030 nM. With `Cc1nnsc1C(=O)Nc1cccc(-c2ccc(-c3nc4ccccc4[nH]3)cc2)c1` the IC50 was 870 nM. `Cc1ccc(CN2CCN(c3cc4c(cc3Cl)CCN4C(=O)Cc3ccc(Cl)c(NC(=O)Nc4cccc(C#N)c4)c3)CC2)cc1` gave an IC50 of 1130 nM. For `Cc1cc(C)cc(OCC(O)CN(Cc2cc(Cl)cc(Cl)c2)C(=O)Nc2ccc([N+](=O)[O-])cc2)c1` (stereo unspecified), the IC50 was 800 nM. In the case of `COc1ccc(Nc2nccc(NCCNC(=O)Nc3ccccc3F)n2)cc1`, the IC50 is reported as 1320 nM. `CCC(Cc1cnc2nc(N)nc(N)c2n1)c1ccc(C(=O)N[C@@H](CCC(=O)O)C(=O)O)cc1` (stereo partly specified) gave an IC50 of 40 nM. `Cc1cc(NCCC(=O)Nc2ccccc2)nc(NCCc2cccs2)n1` was tested, and the IC50 was 890 nM. `O=C(CCC1CCCC1)N(Cc1ccc(-c2ccc(CNCCc3ccccn3)cc2)cc1)CC1CCCCN1` (stereo unspecified) was tested, and the IC50 was 1150 nM. Compound `O=C(/C=C/c1ccc(Cl)c(Cl)c1)NCCCCCN1CCCC(C(=O)Nc2cccc(Cl)c2)C1` (stereo unspecified) has an IC50 of 900 nM. Work on `Cc1[nH]c(C)c(-c2ccc(Br)cc2)c(=O)c1Br` yielded an IC50 of 640 nM. `Cc1cc(C(=O)CN2C(=O)NC3(CCCc4ccccc43)C2=O)c(C)n1Cc1ccco1` (stereo unspecified) showed an IC50 of 1100 nM.
